Measured values taken from patent US6534524B1, “Indazole compounds and pharmaceutical compositions for inhibiting protein kinases, and methods for their use” (Agouron Pharmaceuticals, Inc., priority 1999, dated 2003).
“And” between values parts separate entries of the source, which are not always exact repeats. Equal entries are not always repeated. Where two headings read alike, the source gives them in different places. Marks after values point to notes of the source that are not given here.

Legend:
LCK tyrosine kinase = target: T1, LCK tyrosine kinase (Homo sapiens, UniProt P06239, C224D/P223M); experiment: LCK spectrophotometric assay; type: biochemical; settings: Table 1; for inhibition at 1 µM: read-out: Lck-P % inhibition; for Ki: read-out: Lck-P Ki
T1 construct: starting from amino acid residue 223 to the end of the protein at residue 509; made in house; host or cells: insect cells
Description: The production of ADP from ATP that accompanies phosphoryl transfer was coupled to oxidation of NADH using phosphoenolpyruvate (PEP) and a system having pyruvate kinase (PK) and lactic dehydrogenase (LDH). The oxidation of NADH was monitored by following the decrease of absorbance at 340 nm (e340=6.22 cm^−1 mM^−1) using a Beckman DU 650 spectrophotometer. […] Ki values were determined by measuring enzyme activity in the presence of varying concentrations of test compounds. The data were analyzed using Enzyme Kinetic and Kaleidagraph software.
The spectrophotometric assay was carried out as described above for VEGF-R2, except for the following changes in concentration: LCK=60 nM, MgCl2=0 mM, poly(E4Y1)=20 mM.

[1] = system: human umbilical vein endothelial cells (HUVEC); experiment: HUVEC proliferation assay (VEGF-stimulated, MTT); type: cell-based; settings: Homo sapiens, HUVEC
[2] = Determination of inhibitor concentration in mouse plasma after intraperitoneal and oral dosing; type: in vivo; settings: for concentration at 7 h: female
In short: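 Mice dosed intraperitoneally or orally; blood taken by ocular bleed at 0.5, 1 and 4 h and by intracardiac puncture at 7 h. Plasma extracted with ethyl acetate after internal standard and NaOH addition, analysed by HPLC or LC-MS against a mouse-plasma standard curve.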

human FGF-R1 = human FGF-R1 (Homo sapiens, UniProt P11362, C488A/C584S/L457V); experiment: FGF-R spectrophotometric assay; settings: for inhibition at 1 µM: read-out: FGF-P % inhibition, Table 1
[3] = target: unphosphorylated VEGF-R2Δ50 (FLVK) (Homo sapiens, UniProt P35968, DEL940-989/E990V); experiment: VEGF-R2 coupled spectrophotometric assay, unphosphorylated VEGF-R2Δ50 (FLVK); settings: for Ki: FLVK Ki, Table 1
human CHK1 (FL-CHK1) = target: T2, human CHK1 (FL-CHK1) (Homo sapiens, UniProt O14757); experiment: CHK1 assay (coupled spectrophotometric, Syntide-2); type: biochemical; settings: read-out: CHK-1 Ki
T2 construct: C-terminally His-tagged full-length human CHK1 (FL-CHK1); made in house; host or cells: baculovirus/insect cell system
T2 sequence (O14757 1-476): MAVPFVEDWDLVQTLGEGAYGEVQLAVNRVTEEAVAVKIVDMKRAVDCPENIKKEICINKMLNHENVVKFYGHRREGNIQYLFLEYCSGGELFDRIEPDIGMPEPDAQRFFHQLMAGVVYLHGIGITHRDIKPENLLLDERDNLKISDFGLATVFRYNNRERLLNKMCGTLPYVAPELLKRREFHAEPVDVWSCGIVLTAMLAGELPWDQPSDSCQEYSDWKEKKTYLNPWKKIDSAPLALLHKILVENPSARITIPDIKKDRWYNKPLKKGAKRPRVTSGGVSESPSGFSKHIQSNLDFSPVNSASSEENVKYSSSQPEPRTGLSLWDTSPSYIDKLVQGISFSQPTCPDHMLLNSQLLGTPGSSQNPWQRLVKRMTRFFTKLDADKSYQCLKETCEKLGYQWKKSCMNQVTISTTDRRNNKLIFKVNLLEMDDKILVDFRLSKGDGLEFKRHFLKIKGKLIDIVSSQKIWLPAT
In short: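 Full-length C-terminally His-tagged human CHK1 expressed in baculovirus/insect cells, used at 10 nM with Syntide-2 substrate. ADP formation coupled via PK/LDH to NADH oxidation, followed as absorbance decrease at 340 nm. Ki from initial rates at varying compound concentrations.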

CDK2/Cyclin A = CDK2/Cyclin A (Homo sapiens, UniProt P24941); experiment: CDK2/Cyclin A assay ([32P]ATP, Rb fragment); type: biochemical; settings: Table 3
CDK1 = CDK1 (Homo sapiens, UniProt P06493); experiment: CDK1 inhibition; type: biochemical; settings: Table 3
CDK4/Cyclin D3 complex = CDK4/Cyclin D3 complex (Homo sapiens, UniProt P11802); experiment: CDK4/Cyclin D assay ([32P]ATP, Rb fragment)
[4] = target: phosphorylated VEGF-R2Δ50 (FLVK-P) (Homo sapiens, UniProt P35968, DEL940-989/E990V); experiment: VEGF-R2 coupled spectrophotometric assay, phosphorylated VEGF-R2Δ50 (FLVK-P)
[5] = Human liver microsome (HLM) assay; type: in vitro ADME; settings: human liver microsomes, 5 μM test compound
In short: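 Compound metabolism in human liver microsomes measured in triplicate. Samples at 0 and 2 h centrifuged at 14000 g for 10 min and analysed by LC-MS.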

[6] = + albumin, read-out: HUVEC + albumin IC50
[7] = PO, 25 mg/kg, vehicle PEG400:H2O pH 2.3 30:70
[8] = PO, 25 mg/kg, vehicle PEG400:H2O pH 2.3 30:70, read-out: Cmin (7 hr conc.)
[9] = IP, 25 mg/kg, vehicle PEG400:H2O pH 2.3 30:70
[10] = PO, 50 mg/kg, vehicle PEG400:H2O pH 2.3 30:70
[11] = IP, 25 mg/kg, vehicle PEG400:H2O pH 2.3 60:40
[12] = PO, 50 mg/kg, vehicle PEG400:H2O pH 2.3 60:40
[13] = IP, 25 mg/kg, vehicle PEG400:H2O pH 2.3 60:40, read-out: Cmin (7 hr conc.)
[14] = PO, 50 mg/kg, vehicle PEG400:H2O pH 2.3 60:40, read-out: Cmin (7 hr conc.)

Chain of human FGF-R1 (P11362 456-766 L457V/C488A/C584S): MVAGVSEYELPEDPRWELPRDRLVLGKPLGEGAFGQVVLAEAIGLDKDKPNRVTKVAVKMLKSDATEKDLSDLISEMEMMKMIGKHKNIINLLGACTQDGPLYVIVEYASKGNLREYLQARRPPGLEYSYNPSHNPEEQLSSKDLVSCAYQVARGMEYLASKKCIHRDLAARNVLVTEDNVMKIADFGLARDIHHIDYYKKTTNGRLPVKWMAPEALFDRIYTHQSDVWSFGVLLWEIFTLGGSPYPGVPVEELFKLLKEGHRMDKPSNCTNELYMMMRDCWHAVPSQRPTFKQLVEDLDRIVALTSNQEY
Chain of CDK1 (P06493 whole entry, species assumed, the tested form may be a part): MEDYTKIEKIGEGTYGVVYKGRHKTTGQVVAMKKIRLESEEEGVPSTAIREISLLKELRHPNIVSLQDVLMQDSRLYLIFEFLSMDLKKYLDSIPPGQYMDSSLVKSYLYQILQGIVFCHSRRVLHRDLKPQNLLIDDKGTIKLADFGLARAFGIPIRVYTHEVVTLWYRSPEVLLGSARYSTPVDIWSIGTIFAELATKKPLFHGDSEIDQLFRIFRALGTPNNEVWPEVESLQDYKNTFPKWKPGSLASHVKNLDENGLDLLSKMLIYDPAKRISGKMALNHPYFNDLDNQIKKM
Chain of CDK1 (P14635 whole entry partner, species assumed, the tested form may be a part): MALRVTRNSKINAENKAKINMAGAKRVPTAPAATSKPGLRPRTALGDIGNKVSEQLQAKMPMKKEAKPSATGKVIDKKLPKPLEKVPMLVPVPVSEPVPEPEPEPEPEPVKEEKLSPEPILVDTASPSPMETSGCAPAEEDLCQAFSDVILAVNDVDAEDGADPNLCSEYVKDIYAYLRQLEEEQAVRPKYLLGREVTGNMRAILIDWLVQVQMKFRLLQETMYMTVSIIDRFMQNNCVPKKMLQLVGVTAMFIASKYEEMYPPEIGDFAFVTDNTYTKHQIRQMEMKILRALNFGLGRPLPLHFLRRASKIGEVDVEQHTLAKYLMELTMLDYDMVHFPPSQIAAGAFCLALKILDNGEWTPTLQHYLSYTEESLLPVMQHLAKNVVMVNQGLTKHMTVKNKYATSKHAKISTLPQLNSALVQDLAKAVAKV
T1 sequence (P06239 223-509 P223M/C224D): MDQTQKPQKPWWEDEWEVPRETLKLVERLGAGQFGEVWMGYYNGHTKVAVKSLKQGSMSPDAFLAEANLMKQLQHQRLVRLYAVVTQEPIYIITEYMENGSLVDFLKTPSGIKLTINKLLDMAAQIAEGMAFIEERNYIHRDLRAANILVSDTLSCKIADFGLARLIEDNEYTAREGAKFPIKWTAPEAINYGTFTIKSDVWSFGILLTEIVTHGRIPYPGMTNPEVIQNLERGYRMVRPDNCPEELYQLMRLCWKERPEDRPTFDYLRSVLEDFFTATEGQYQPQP
Chain of unphosphorylated VEGF-R2Δ50 (FLVK) (P35968 with tags, fused parts or gaps DEL940-989/E990V limits assumed): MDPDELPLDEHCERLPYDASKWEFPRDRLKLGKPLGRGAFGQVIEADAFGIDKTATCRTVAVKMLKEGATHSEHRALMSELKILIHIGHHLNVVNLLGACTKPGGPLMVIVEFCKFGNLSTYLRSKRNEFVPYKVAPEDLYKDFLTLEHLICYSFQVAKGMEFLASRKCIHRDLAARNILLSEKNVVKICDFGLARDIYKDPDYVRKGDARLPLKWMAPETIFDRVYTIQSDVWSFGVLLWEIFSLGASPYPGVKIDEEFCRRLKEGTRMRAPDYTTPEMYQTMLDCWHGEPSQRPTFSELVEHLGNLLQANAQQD
Chain of CDK4/Cyclin D3 complex (P11802 whole entry, the tested form may be a part): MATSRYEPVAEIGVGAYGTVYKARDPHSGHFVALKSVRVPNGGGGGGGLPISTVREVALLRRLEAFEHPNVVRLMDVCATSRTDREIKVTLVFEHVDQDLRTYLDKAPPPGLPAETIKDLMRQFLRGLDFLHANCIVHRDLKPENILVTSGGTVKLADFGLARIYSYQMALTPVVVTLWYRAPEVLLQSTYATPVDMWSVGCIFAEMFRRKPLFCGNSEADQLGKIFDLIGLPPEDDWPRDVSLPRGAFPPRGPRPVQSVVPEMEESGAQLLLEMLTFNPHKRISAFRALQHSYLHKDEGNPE
Chain of CDK4/Cyclin D3 complex (P30281 whole entry partner, the tested form may be a part): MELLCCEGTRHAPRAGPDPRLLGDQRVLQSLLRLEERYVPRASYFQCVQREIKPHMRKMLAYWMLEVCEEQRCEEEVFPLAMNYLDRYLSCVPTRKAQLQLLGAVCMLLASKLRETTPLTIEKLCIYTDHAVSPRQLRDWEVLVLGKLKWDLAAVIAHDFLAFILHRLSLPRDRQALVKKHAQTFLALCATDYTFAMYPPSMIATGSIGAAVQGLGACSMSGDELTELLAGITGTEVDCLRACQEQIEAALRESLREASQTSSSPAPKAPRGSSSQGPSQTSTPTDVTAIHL
Chain of phosphorylated VEGF-R2Δ50 (FLVK-P) (P35968 with tags, fused parts or gaps DEL940-989/E990V limits assumed): as the sequence (P35968 with tags, fused parts or gaps DEL940-989/E990V limits assumed) above

## Cc1cnccc1C(=O)Nc1cccc(C(=O)c2ccc3c(/C=C/c4ccccn4)n[nH]c3c2)c1 [Example 41(j), 6-[3-((3-Methylpyridin-4-yl)carboxamido)benzoyl]-3-E-[2-(pyridin-2-yl)ethenyl]-1H-indazole]
LCK tyrosine kinase; compound concentration 1 μM
  inhibition at 1 µM: 16%
[1]; [6]
  IC50: 7.7 nM
[2]; [7]
  AUClast: 1476 ng·h/mL
  plasma half-life (T1/2): 1.3 h
[2]; [8]
  concentration at 7 h: 17 ng/mL
Human FGF-R1; compound concentration 1 μM
  inhibition at 1 µM: 41%
[3]; read-out: FLVK % inhibition
  inhibition at 0.05 µM: 98%

## C(=N\n1cccc1)/c1n[nH]c2cc(-c3ccncc3)ccc12 [Example 51, 6-Pyrid-4-yl-3-E-(N-(pyrrol-1-yl)iminomethyl)-1H-indazole]
Human CHK1 (FL-CHK1); Table 3
  Ki: 87 nM
CDK2/Cyclin A; compound concentration 1 μM
  inhibition at 1 µM: 84%
CDK1
  Ki: 146 nM
CDK4/Cyclin D3 complex; read-out: CDK4 % inhibition
  inhibition at 1 µM: 79%

## C(=C\c1n[nH]c2cc(-c3ccncc3)ccc12)/c1ccccc1 [Example 27(f)]
Human CHK1 (FL-CHK1); Table 3
  Ki: 350 nM
CDK2/Cyclin A
  Ki: 3300 nM
CDK1
  Ki: 223 nM
CDK4/Cyclin D3 complex
  Ki: 780 nM

## Cc1cccc(/C=C/c2n[nH]c3cc(-c4ccncc4)ccc23)c1 [Example 29(b), 6-Pyrid-4-yl-3-E-[2-(3-methylphenyl)ethenyl]-1H-indazole]
CDK2/Cyclin A
  Ki: 3000 nM
CDK1
  Ki: 900 nM
CDK4/Cyclin D3 complex
  Ki: 3900 nM

## Fc1ccccc1/C=C/c1n[nH]c2cc(-c3ccncc3)ccc12 [Example 29(h), 6-Pyrid-4-yl-3-E-[2-(2-fluorophenyl)ethenyl]-1H-indazole]
Human CHK1 (FL-CHK1); Table 3
  Ki: 140 nM
CDK2/Cyclin A
  Ki: 3000 nM
CDK1
  Ki: 1300 nM
CDK4/Cyclin D3 complex
  Ki: 2200 nM

## Oc1cccc(Oc2ccc3c(/C=C/c4ccccc4)n[nH]c3c2)c1 [Example 9(a), 3-(E-styryl)-6-[3-hydroxyphenoxy]-1H-indazole]
LCK tyrosine kinase
  Ki: 162 nM
Human CHK1 (FL-CHK1); Table 1
  Ki: 400 nM
CDK4/Cyclin D3 complex
  Ki: 1700 nM
[3]
  Ki: 2.4 nM
[4]
  Ki: 16 nM

## CCCn1nc(C)cc1C(=O)Nc1cc(C(=O)c2ccc3c(/C=C/c4ccccn4)n[nH]c3c2)ccc1C [Example 41(ii), 6-[3-((1-n-Propyl-3-methyl-1H-pyrazol-5-yl)carboxamido)-4-methylbenzoyl]-3-E-[2-(pyridin-2-yl)ethenyl]-1H-indazole]
LCK tyrosine kinase; compound concentration 1 μM
  inhibition at 1 µM: 18%
[1]; [6]
  IC50: 13 nM
[2]; [7]
  AUClast: 7094 ng·h/mL
  Cmax: 1826 ng/mL
  plasma half-life (T1/2): 2.3 h
[2]; [8]
  concentration at 7 h: 346 ng/mL
Human FGF-R1
  Ki: 11 nM
[3]; read-out: FLVK % inhibition
  inhibition at 0.05 µM: 57%

## C(=C\c1n[nH]c2cc(-c3ccnc4[nH]ncc34)ccc12)/c1ccccc1 [Example 52(a), 6-(7-Azaindazol-4-yl)-3-E-styryl-1H-indazole]
CDK1; compound concentration 1 μM
  inhibition at 1 µM: 39%
[3]; read-out: FLVK % inhibition
  inhibition at 1 µM: 60%

## O=C(c1cccc(NC(=O)C2C[C@H]2c2ccccc2)c1)c1ccc2c(/C=C/c3ccccn3)n[nH]c2c1 (stereo partly drawn) [Example 41(l), 6-[3-((2-RS-trans-Phenylcyclopropyl)carboxamido)benzoyl]-3-E-[2-(pyridin-2-yl)ethenyl]-1H-indazole]
LCK tyrosine kinase; compound concentration 1 μM, 1 µM
  Lck-P % inhibition: 38%* and 63%*
[2]; [9]
  AUClast: 1854 ng·h/mL
  Cmax: 623 ng/mL
  plasma half-life (T1/2): 3.1 h
[2]; [10]
  AUClast: 212 ng·h/mL
  Cmax: 104 ng/mL
  plasma half-life (T1/2): 0.5 h
[2]; IP, 25 mg/kg, vehicle PEG400:H2O pH 2.3 30:70, read-out: Cmin (7 hr conc.)
  concentration at 7 h: 102 ng/mL
[2]; PO, 50 mg/kg, vehicle PEG400:H2O pH 2.3 30:70, read-out: Cmin (7 hr conc.)
  concentration at 7 h: 0 ng/mL
Human FGF-R1; Table 1, compound concentration 1 μM, 1 µM
  FGF-P % inhibition: 66%
Human FGF-R1; compound concentration 1 μM
  inhibition at 1 µM: 76%
[3]
  Ki: 0.04 nM and 0.24 nM

## Fc1cccc(/C=C/c2n[nH]c3cc(-c4ccncc4)ccc23)c1 [Example 29(g), 6-Pyrid-4-yl-3-E-[2-(3-fluorophenyl)ethenyl]-1H-indazole]
Human CHK1 (FL-CHK1); Table 3
  Ki: 68 nM
CDK2/Cyclin A
  Ki: 1400 nM
CDK1
  Ki: 390 nM
CDK4/Cyclin D3 complex
  Ki: 1100 nM

## O=C(c1cccc(NC(=O)c2ccccn2)c1)c1ccc2c(/C=C/c3ccccn3)n[nH]c2c1 [Example 41(aa), 6-[3-(Pyridin-2-ylcarboxamido)benzoyl]-3-E-[2-(pyridin-2-yl)ethenyl]-1H-indazole]
LCK tyrosine kinase; compound concentration 1 μM
  inhibition at 1 µM: 49%
[1]; [6]
  IC50: 5.2 nM
[1]; read-out: HUVEC IC50
  IC50: 1 nM
[2]; [11]
  AUClast: 6659 ng·h/mL
  plasma half-life (T1/2): 2.1 h
[2]; [12]
  AUClast: 289 ng·h/mL
  plasma half-life (T1/2): 0.9 h
[2]; [13]
  concentration at 7 h: 124 ng/mL
[2]; [14]
  concentration at 7 h: 5 ng/mL
Human FGF-R1; compound concentration 1 μM
  inhibition at 1 µM: 37%
[3]
  Ki: 0.11 nM

## COc1cccc(/C=C/c2n[nH]c3cc(-c4ccncc4)ccc23)c1 [Example 29(e), 6-Pyrid-4-yl-3-E-[2-(3-methoxyphenyl)ethenyl]-1H-indazole]
Human CHK1 (FL-CHK1); Table 3
  Ki: 74 nM
CDK2/Cyclin A
  Ki: 1400 nM
CDK1
  Ki: 593 nM
CDK4/Cyclin D3 complex
  Ki: 2000 nM

## C(=C\c1n[nH]c2cc(-c3ccncc3)ccc12)/c1ccc2c(c1)OCO2 [Example 29(r), 6-Pyrid-4-yl-3-E-[2-(3,4-methylenedioxyphenyl)ethenyl]-1H-indazole]
Human CHK1 (FL-CHK1); Table 3
  Ki: 72 nM
CDK2/Cyclin A
  Ki: 1300 nM
CDK1
  Ki: 66 nM
CDK4/Cyclin D3 complex
  Ki: 1100 nM

## O=C(Nc1ccc(O)cc1)c1ccc2c(-c3nc4ccccc4[nH]3)n[nH]c2c1 [Example 53(a), 3-(1H-Benzoidazol-2-yl)-N-(4-hydroxyphenyl)-1H-indazole-6-carboxamide]
Human CHK1 (FL-CHK1); Table 3
  Ki: 301 nM
CDK2/Cyclin A; @ 5 μM
  inhibition at 5 µM: 13%
CDK1
  Ki: 24000 nM
CDK4/Cyclin D3 complex; read-out: CDK4 % inhibition
  inhibition at 5 µM: 28%

## O=C(Nc1cccc(C(=O)c2ccc3c(/C=C/c4ccccn4)n[nH]c3c2)c1)c1ccccc1 [Example 42(a), 6-(3-Benzamidobenzoyl)-3-E-[2-(pyridin-2-yl)ethenyl]-1H-indazole]
LCK tyrosine kinase
  Ki: 53 nM
[5]
  % remain (HLM, 2 h): 92%
[2]; [11]
  AUClast: 19899 ng·h/mL
  plasma half-life (T1/2): 5.0 h
[2]; [12]
  AUClast: 8384 ng·h/mL
  plasma half-life (T1/2): 2.0 h
[2]; [13]
  concentration at 7 h: 1640 ng/mL
[2]; [14]
  concentration at 7 h: 341 ng/mL
Human FGF-R1
  Ki: 65 nM
[3]
  Ki: 0.046 nM

## O=C(c1cccc(NC(=O)c2ccno2)c1)c1ccc2c(/C=C/c3ccccc3)n[nH]c2c1 [Example 19(l)]
LCK tyrosine kinase; compound concentration 1 μM
  inhibition at 1 µM: 36%
[1]; [6]
  IC50: 100 nM
Human FGF-R1; compound concentration 1 μM
  inhibition at 1 µM: 88%
[3]
  Ki: 0.72 nM
[4]
  Ki: 4.7 nM
